Data as given in patent US9475816B2, “Substituted-1,4-dihydropyrazolo[4,3-b]indoles” (TAKEDA PHARMACEUTICAL COMPANY LIMITED, priority 2012, dated 2016).

Experiments:
[1] = genetically and diet-induced obese mice; cited from earlier work
angiogenesis = conditions: cited from earlier work
[2] = mice; cited from earlier work
human MetAP2 enzyme [3] = molecular target: T1, human MetAP2 enzyme (Homo sapiens, UniProt P50579); test: MetAP2 enzyme assay, MetAP2 enzyme complexed with cobalt ions; conditions: MetAP2 Co pIC50, 10 μM CoCl2; -log(IC50), IC50 molar
T1 sequence (P50579 whole entry): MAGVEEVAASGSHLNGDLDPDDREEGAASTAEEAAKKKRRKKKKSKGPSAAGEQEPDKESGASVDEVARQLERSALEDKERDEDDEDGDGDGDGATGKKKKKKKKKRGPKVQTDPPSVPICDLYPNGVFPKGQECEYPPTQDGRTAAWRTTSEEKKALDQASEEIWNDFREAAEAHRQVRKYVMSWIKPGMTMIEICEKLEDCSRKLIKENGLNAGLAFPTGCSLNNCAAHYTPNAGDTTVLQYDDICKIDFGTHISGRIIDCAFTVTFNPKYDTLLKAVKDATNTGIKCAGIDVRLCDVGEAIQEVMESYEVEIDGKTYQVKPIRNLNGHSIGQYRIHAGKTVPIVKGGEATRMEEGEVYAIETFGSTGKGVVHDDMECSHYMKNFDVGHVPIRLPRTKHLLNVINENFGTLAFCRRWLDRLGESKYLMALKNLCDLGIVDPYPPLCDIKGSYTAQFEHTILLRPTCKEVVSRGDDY
Protocol: (§1) DNA encoding the full-length sequence of human MetAP2 enzyme is amplified by PCR and cloned into a pFastBac expression vector (Invitrogen). Recombinant baculovirus incorporating the MetAP2 construct is generated by transposition using the Bac-to-Bac system (Invitrogen). The expression of recombinant protein is carried out by infection of Spodoptera frugiperda Sf9 cells (Invitrogen) in 5L Wave Bioreactors (Wave Biotech). Recombinant protein is isolated from cellular extracts by binding to an SP Hitrap Fast Flow or SP Sepharose (Sigma) column, and the protein is eluted using a NaCl gradient. Partially purified extracts of MetAP2 are further purified by an AKTA FPLC over a Superdex-200 column (GE). The purity of MetAP2 protein is determined on denaturing SDS-PAGE gel.
(§2) The results for each well are expressed as percent inhibition and calculated using the equation:

human MetAP2 enzyme [4] = molecular target: T1, human MetAP2 enzyme; test: MetAP2 enzyme assay, MetAP2 enzyme complexed with manganese ions; conditions: MetAP2 Mn pIC50, 10 μM MnCl2; -log(IC50), IC50 molar
Protocol: as §1, §2

Compound	food intake, body weight, fat mass, size of adipocytes [1]	angiogenesis (angiogenesis)	effect on diet-induced obesity [2]	IC50 (human MetAP2 enzyme [3]) [nM]	IC50 (human MetAP2 enzyme [4]) [nM]
beloranib hemioxalate [CKD-732]	decrease food intake, body weight, fat mass, and the size of adipocytes	–	–	–	–
CO[C@@H]1[C@H](OC(=O)/C=C/C=C/C=C/C=C/C(=O)O)CC[C@]2(CO2)[C@H]1[C@@]1(C)O[C@@H]1CC=C(C)C [fumagillin]	–	inhibit angiogenesis	impair diet-induced obesity	–	–
Cc1nc(NC[C@@H](O)CO)ncc1-n1c2ccc(F)cc2c2[nH]ncc21 [Example 86, (2R)-3-((5-(7-Fluoropyrazolo[4,3-b]indol-4(1H)-yl)-4-methylpyrimidin-2-yl)amino)propane-1,2-diol]	–	–	–	7.94	12.6
Cc1nc(C(=O)N(C)CC#N)ccc1-n1c2ccc(F)cc2c2[nH]ncc21 [Example 121, N-(Cyanomethyl)-5-(7-fluoropyrazolo[4,3-b]indol-4(1H)-yl)-N,6-dimethylpicolinamide]	–	–	–	20	15.8
Cc1nc(N2CCC[C@H]2C(N)=O)ncc1-n1c2ccc(F)cc2c2[nH]ncc21 [Example 72, (2S)-1-(5-(7-Fluoropyrazolo[4,3-b]indol-4(1H)-yl)-4-methylpyrimidin-2-yl)pyrrolidine-2-carboxamide]	–	–	–	7.94	3.16
Cc1cc(N(C)CCO)ncc1-n1c2ccc(F)cc2c2[nH]ncc21 [Example 63, 2-((5-(7-Fluoropyrazolo[4,3-b]indol-4(1H)-yl)-4-methylpyridin-2-yl)(methyl)amino)ethanol]	–	–	–	15.8	15.8
